Test results as given in US20130165652A1, “NOVEL HETEROCYCLIC COMPOUND, AND COMPOSITION FOR TREATING INFLAMMATORY DISEASES USING SAME” (NEOPHARM CO.,LTD., priority 2010, published 2013).

Key:
[1] = Cytotoxicity (CC50); assay type: cell-based
[2] = target: T1, PAR-2 (Homo sapiens, UniProt P55085); assay: PathHunter β-arrestin GPCR assay; assay type: cell-based; design: purchased DiscoveRx Corp; settings: β-arrestin accumulation; SKIGKV-NH2 (10 μM); samples 1000 to 50 μM
T1 sequence (P55085 26-397): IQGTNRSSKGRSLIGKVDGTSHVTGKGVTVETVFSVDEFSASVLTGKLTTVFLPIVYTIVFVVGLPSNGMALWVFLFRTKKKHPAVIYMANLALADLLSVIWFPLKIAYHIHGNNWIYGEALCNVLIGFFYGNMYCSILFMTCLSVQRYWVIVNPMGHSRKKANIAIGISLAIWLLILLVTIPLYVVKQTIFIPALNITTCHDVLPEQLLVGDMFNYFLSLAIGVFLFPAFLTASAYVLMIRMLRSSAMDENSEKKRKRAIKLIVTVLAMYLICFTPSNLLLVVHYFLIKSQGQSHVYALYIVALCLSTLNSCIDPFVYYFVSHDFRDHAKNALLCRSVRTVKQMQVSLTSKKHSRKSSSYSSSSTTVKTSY
Experimental: An in vitro assay protocol capable of detecting activation of the PAR-2 was additionally introduced in addition to a calcium immobilization assay to measure the activity of the selected materials. First, the PAR-2 inhibitory activities of two kinds of samples were measured using a PathHunter™ β-arrestin GPCR assay kit (DiscoveRx Corp.) capable of detecting accumulation of β-arrestin, which is an intracellular reaction firstly generated by the activation of the PAR-2. Experiments were conducted by diluting concentrations of the samples by one-half, ranging from 1000 to 50 μM and SKIGKV-NH2 (10 μM) was treated with the PAR-2 […]. As an experimental result, suppression of β-arrestin was confirmed in both of the two kinds of samples at a concentration of 500 μM. As a measurement result, it was observed that IC50 values were different from those in calcium immobilization assay (See Table 1).

[3] = target: T1, PAR-2; assay: Calcium immobilization assay (Calcium-4 assay kit); assay type: cell-based; settings: HCT-15 cells over-expressing PAR-2; activating peptide (AP) as PAR-2 activating agent; inhibitor treated for 5 minutes before AP
Experimental: In order to evaluate inhibitory activity of the synthesized materials against the PAR-2, primarily, an assay system in which a concentration of calcium ions in cell may be measured in real time was constructed, and evaluation was conducted using this system. The PAR-2 is a kind of G-protein coupled receptors (GPCR), and when the PAR-2 is activated in cell, phospholipase C-b (PLC-b) decomposes phosphatidylinositol 4,5-bisphosphate (PIP2) into inositol triphosphate (IP3) and diacyl glycerol (DAG) while being activated. IP3 generated at this time stimulates secretion of calcium ions in endoplasmic reticulum (ER), which is a storage of calcium ions in a cell, such that the concentration of calcium ions in the cell is increased. Based on an existing study result, an in vitro screening assay system capable of detecting a material capable of suppressing the concentration of calcium ions in the cell from being increased by activation of PAR-2 was constructed. As a PAR-2 activating agent, activating peptide (AP) was used, and as a reagent for detecting the concentration of calcium ion in the cell, a Calcium-4 assay kit produced (Molecular Probe). […]
The inhibitory activity of the synthesized materials against the PAR-2 was evaluated using the protocol as described above, and profiles of the assay for Compounds 45 and 73 prepared in Examples 1 and 2 were shown in FIGS. 1 and 2.

[4] = system: oxazolone induced chronic dermatitis; assay: Oxazolone induced chronic dermatitis animal model; assay type: in vivo, hairless mouse (SKH-1); settings: hairless mice, applied once a day for 3 days
Experimental: Effects of the selected materials were evaluated using chronic dermatitis animal model. Oxazolone induced chronic dermatitis animal model by continuously applying oxazolone, which is a kind of hapten, to a hairless mouse was used. It was reported that various symptoms of atopic dermatitis relatively accurately appear in recently developed oxazolone model, and the present inventors also confirmed through the prior study that various symptoms of general atopic dermatitis appear similarly to clinically appearing symptoms. In order to construct the chronic dermatitis animal model, 5% oxazolone was applied and sensitized to the hairless mice (SKH-1, 6 weeks old). After 1 week, 0.1% oxazolone was applied every other day for 2 weeks, thereby induced the symptoms of dermatitis. After samples were applied to the dermatitis induced animal once a day for 3 days, changes in various skin functions and a skin thickness were observed. Finally, biopsy was performed on skin tissue, and histological observation was conducted. As a positive control group used in the experiment, 0.05% desonide formulation, which is a steroid having relatively weak potency, was used, and changes in trans-epidermal water loss (TEWL) skin hydration in stratum cornea, and skin thickness were observed.

[5] = target: T1, PAR-2; assay: Confocal microscopy of PAR-2 activation in KNRK-PAR-2 cell line; assay type: cell-based; settings: KNRK-PAR-2 cells; [trypsin]=11 μM, [SLIGKV]=100 μM, [Compound 45]=200 μM
Experimental: In order to visually confirm the activation of the PAR-2, a cell line having the following structure was prepared based on existing references, and activation of the PAR-2 was observed using a confocal microscope. As the cell line, Kirsten Murine Sarcoma Virus transformed rat kidney epithelial cell (KNRK cell) was used. In this cell line, the PAR-2 may not be expressed in a normal state. Each of the N-terminals of […] were tagged with Flag epitope, and each of the C-terminals were tagged with Myc epitope, such that a stable transfected cell was constructed. […] In a state in which the PAR-2 was not activated, Flag and Myc were double stained, such that a yellow image was shown in a merged image. However, in the case in which the PAR-2 was activated, a red image was shown while the Flag is separated.

## Cc1nc2ccc(C(=O)N3CCN(C(=O)C4CCCCC4)CC3)cn2c1-c1ccccc1 [Compound 73, (4-(cyclohexanecarbonyl)piperazin-1-yl)(2-methyl-3-phenylimidazo[1,2-a]pyridin-6-yl)methanone]
[1]
  CC50: > 100 µM
[2]
  IC50: 401 µM
[3]
  IC50: 76.7 µM

## Cc1cccc(-c2c(C)nc3ccc(C(=O)N4CCCCC4)cn23)c1 [Compound 45]
[4]; FIG. 5
  trans-epidermal water loss (TEWL): effectively restore
[4]; FIG. 6
  skin hydration in stratum cornea: effectively restore
[4]; FIG. 7
  skin thickness: statistically significant improvement effect
[5]
  activation of the PAR-2 (Flag/Myc double staining, merged image): activation of the PAR-2 was suppressed
[1]
  CC50: > 100 µM
[2]
  IC50: 339 µM
[3]
  IC50: 73.8 µM
